Experimental data reported in patent WO2010003376A1, “Methods for treatment and/or prevention of cancer with andrographolide (and) and use thereof” (Chinese University of Hong Kong CUHK, priority 2008, dated 2010).
Read-outs that look alike come from different tables or passages of the source.

What was measured:
Mdm2 mRNA = test: Semi-quantitative RT-PCR of Mdm2 mRNA in rat liver; format: in vivo; settings: both experiments, 10 mg/kg orally, vs positive control (p < 0.05)
[1] = system: total p53 (wild type and mutant); test: Western blot of total p53 in rat liver nuclei; format: in vivo; settings: 10 mg/kg orally
Bcl-2 = test: Western blot of Bcl-2 in rat liver; format: in vivo; settings: both experiments, 10 mg/kg orally
[2] = system: HepG2 cells, the human liver cancer cells; test: Neutral red assay (cell viability), HepG2; format: cell-based; settings: for IC50: Homo sapiens, read-out: IC50 (concentration that reduces cell viability by 50%)
HepG2 cells [3] = test: Flow cytometry (cell cycle analysis, PI staining); format: cell-based, human
[4] = system: liver damage in rats (DEN & CCl4); test: Serum AST and ALT assays, DEN/CCl4 hepatocarcinogenesis; format: in vivo, rat; settings: 10 mg/kg orally
p21 (Waf1/Cip1/Sdi1) = test: Western blot of p21 in rat liver; format: in vivo; settings: both experiments, 10 mg/kg orally, vs positive control
rat liver (DEN & CCl4) = test: Hematoxylin & Eosin staining of rat liver sections; format: in vivo; settings: 10 mg/kg orally
GST-P = test: Immunohistochemical staining of GST-P foci in rat liver; format: in vivo
HepG2 cells [5] = test: DNA fragmentation (DNA gel electrophoresis); format: cell-based, human; settings: 50 μM, 72 hrs
Bax = test: Western blot of Bax in rat liver; format: in vivo; settings: both experiments, 10 mg/kg orally
PCNA = test: Western blot of PCNA in rat liver; format: in vivo; settings: 10 mg/kg orally; for PCNA expression (PCNA : β-actin ratio): vs positive control
[6] = system: hepatocarcinogenesis in rats (DEN & CCl4); test: Gross examination of rat liver, DEN/CCl4 hepatocarcinogenesis; format: in vivo
[7] = system: WRL 68, human normal liver embryo cells; test: Neutral red assay (cell viability), WRL 68; format: cell-based; settings: for IC50: Homo sapiens, WRL68, read-out: IC50 (concentration that reduces cell viability by 50%)
p53 mRNA = test: Semi-quantitative RT-PCR of p53 mRNA in rat liver; format: in vivo; settings: both experiments, 10 mg/kg orally, vs positive control (p < 0.05)
[8] = system: Clone 9, rat normal liver cells; test: Neutral red assay (cell viability), Clone 9; format: cell-based; settings: for IC50: Rattus norvegicus, read-out: IC50 (concentration that reduces cell viability by 50%)
wild type p53 = test: Immunoprecipitation and western blot of wild type p53 in rat liver nuclei; format: in vivo; settings: 10 mg/kg orally
Mdm2 = test: Western blot of Mdm2 in rat liver nuclei; format: in vivo; settings: both experiments, 10 mg/kg orally, vs positive control (p < 0.05)
[9] = system: gene expressions of HepG2 cells; test: cDNA microarray analysis of gene expression (human toxicology and drug metabolism); format: cell-based; settings: 16 μM, 48 hrs, vs control
[10] = system: hepatocarcinogenesis in rats (DEN & CCl4); test: Relative liver weight, DEN/CCl4 hepatocarcinogenesis; format: in vivo, rat; settings: both promotion and progression, 10 mg/kg orally
[11] = progression experiment, p < 0.05

Structure (SMILES): C=C1CC[C@@H]2[C@](C)(CO)[C@H](O)CC[C@@]2(C)[C@@H]1C/C=C1/C(=O)OC[C@H]1O [AND, andrographolide]
- Mdm2 mRNA expression (Mdm2 : β-actin) (Mdm2 mRNA): significantly reduced
- total p53 protein level (discussion) ([1]; AND-treated group): the total p53 protein was increased
- levels of total p53 protein expression ([1]; both experiments, vs negative control (no significant difference)): higher levels of total p53 protein expression
- levels of total p53 (total p53 : β-actin ratio) ([1]; both experiments, vs positive control): no significant difference
- Bcl-2 expression (Bcl-2): an increase in Bcl-2 expression
- Bcl-2 protein expression (Bcl-2 : β-actin ratio) (Bcl-2; vs positive control (p < 0.05)): significantly lower
- inhibitory effect on the proliferation of HepG2 ([2]; HepG2, human liver cancer cell line (Fig. 1)): significantly inhibitory effect
- IC50 ([2]; HepG2, 24 hrs): 17.5 µM
- IC50 ([2]; HepG2, 48 hrs): 16 µM
- IC50 ([2]; HepG2, 72 hrs): 17 µM
- IC50 for HepG2 cells compared with WRL 68 cells ([2]; all three time periods (24, 48 and 72 hrs), P < 0.05): significantly lower
- percentage of cells suspended in the sub G1 phase of the cell cycle (HepG2 cells [3]; 25 μM (Fig. 7, 48 hrs)): 13.1%
- accumulation of cells in G0/G1 phase of the cell cycle (HepG2 cells [3]; 25 μM, 48 hrs (Fig. 7)): 67.1%
- populations of cells suspended in S and G2/M phases (HepG2 cells [3]; 12.5 and 25 μM AND, 48 hrs, vs control (P < 0.05)): significantly decreased
- accumulation of cells in the sub G1 and G0/G1 phases (HepG2 cells [3]; 12.5 and 25 μM AND, 48 hrs, vs control cells): significantly induced the accumulation of cells
- cells suspended in sub G1 phase (HepG2 cells [3]; 20 and 25 μM AND, 24 hrs, vs 1% DMSO): more cells were suspended in sub Gi phase than those treated with DMSO only
- population of cells suspended in G0/G1, S and G2/M phases (HepG2 cells [3]; 20 and 25 μM AND, 24 hrs, vs control cells (P > 0.05)): no significant changes
- serum ALT level [4, 11]: significant reduction
- serum AST level [4, 11]: significant reduction
- serum ALT level ([4]; promotion experiment, p < 0.01): significant reduction
- serum AST level ([4]; promotion experiment, p < 0.01): significant reduction
- levels of p21 (p21 : β-actin ratio) (p21 (Waf1/Cip1/Sdi1)): higher than positive control groups, but no significant difference is observed
- liver histology (H & E staining) (rat liver (DEN & CCl4); progression experiment): normal alignment of hepatocytes around central vein
- liver histology (H & E staining) (rat liver (DEN & CCl4); promotion experiment): Liver structure was restored and hepatocyte arrangement was not as distorted as that of the positive control sections. Vacuolization was reduced and distinct cytoplasm was visible
- number and area of GST-P positive foci (GST-P; 10 mg/kg for 24 and 52 weeks, promotion and progression stages): a decrease in the number and area of GST-P positive foci
- GST-P expression in liver section (GST-P; promotion experiment, 10 mg/kg orally): the expression of GST-P was present but the affected area was reduced
- DNA fragmentation (HepG2 cells [5]): fragmentation at around 200 bp was detected
- Bax expression (Bax): a reduction of Bax expression
- protein levels of Bax (Bax : β-actin ratio) (Bax; vs positive control (p < 0.05)): significantly increased
- PCNA expression (PCNA; both experiments): reduced in both experiments
- PCNA expression (PCNA : β-actin ratio) (PCNA; progression experiment): The level of PCNA expression in DEN-CCl4 treated rat was found to be significantly higher than that in the negative control and AND-treated groups
- PCNA expression (PCNA : β-actin ratio) (PCNA; promotion experiment): no significant difference
- gross appearance of liver ([6]; progression experiment, 10 mg/kg orally, 56th week): some nodules present on the surface of the AND-treated livers, but the structure of the livers generally resembled that of the normal livers
- gross appearance of liver ([6]; promotion experiment, 10 mg/kg orally once daily, 28 weeks): had a smooth surface and generally resembled the negative control livers
- IC50 ([7]; WRL 68, 24 hrs): 57 µM
- IC50 ([7]; WRL 68, 48 hrs): 30 µM
- IC50 ([7]; WRL 68, 72 hrs): 35 µM
- cytotoxicity ([7]; WRL 68, at a concentration of 18 μM (Fig. 2)): significant cytotoxicity was also detectable
- p53 mRNA expression (p53 : β-actin) (p53 mRNA): significant reduction
- cytotoxicity ([8]; Clone 9, at a concentration of 18 μM (Fig. 3)): significant cytotoxicity was also detectable
- IC50 ([8]; Clone 9, 24 hrs): 22 µM
- IC50 ([8]; Clone 9, 48 hrs): 18 µM
- IC50 ([8]; Clone 9, 72 hrs): 18 µM
- level of wild type p53 (wt. p53 : β-actin ratio) (wild type p53; progression experiment, vs positive control (p < 0.05)): a significant increase
- level of wild type p53 (wt. p53 : β-actin ratio) (wild type p53; promotion experiment, vs positive control): no significant difference
- levels of Mdm2 protein (Mdm2 : β-actin ratio) (Mdm2): significant decrease
- expression of BCL2L2 (Bcl-w) gene [9]: down-regulated
- expression of BCL2 gene [9]: down-regulated
- expression of CCND1 gene [9]: down-regulated
- expression of CHEK2 gene [9]: down-regulated
- expression of CYP 2A6 gene [9]: down-regulated
- expression of CYP 2D6 gene [9]: down-regulated
- expression of IL1B gene [9]: under-expressed
- expression of NFKB2 gene [9]: under-expressed
- expression of NQO1 (NAD(P)H dehydrogenase quinone 1) gene [9]: up-regulated
- expression of RB1 gene [9]: up-regulated
- expression of SOD1 (superoxide dismutase 1) gene [9]: up-regulated
- expression of TYMS (thymidylate synthetase) gene [9]: up-regulated
- expression of XDH (xanthine dehydrogenase) gene [9]: up-regulated
- number of genes down-regulated 3-folds or more [9]: forty-two
- number of genes up-regulated 3-folds or more [9]: six
- relative liver weight (liver weight/body weight) ([10]; vs negative control): No significant difference
- relative liver weight (liver weight/body weight) ([10]; vs positive control): significant reduction
